Results taken from ChEMBL document CHEMBL1126355, “The basis for slowly reversible inhibition of dehydroquinate synthase: a case of mistaken identity?” (Bioorg Med Chem Lett, 1992).
pKi: −log10 of the molar value.

Assays:
[1] = target: T1, 3-dehydroquinate synthase (Escherichia coli K-12, UniProt P07639); test: Inhibition constant against 3-dehydroquinate synthase
T1 sequence (P07639 whole entry): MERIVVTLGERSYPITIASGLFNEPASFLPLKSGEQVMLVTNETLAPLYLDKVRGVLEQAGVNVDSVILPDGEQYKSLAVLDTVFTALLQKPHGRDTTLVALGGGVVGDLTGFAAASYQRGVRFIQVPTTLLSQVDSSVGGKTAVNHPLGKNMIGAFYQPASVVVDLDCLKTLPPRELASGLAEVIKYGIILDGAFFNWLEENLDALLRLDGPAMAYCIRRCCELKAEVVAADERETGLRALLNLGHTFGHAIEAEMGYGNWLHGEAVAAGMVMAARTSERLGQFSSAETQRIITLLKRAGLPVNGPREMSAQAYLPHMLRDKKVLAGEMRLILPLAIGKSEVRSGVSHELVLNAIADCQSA

[2] = target: T2, 3-dehydroquinate synthase (Escherichia coli K-12) (UniProt P07639); test: […] rate constant against 3-dehydroquinate synthase
T2 sequence (whole entry): T1 sequence (P07639 whole entry)

[3] = target: T2, 3-dehydroquinate synthase (Escherichia coli K-12); test: Type of inhibition of 3-dehydroquinate synthase was determined; R - Slowly reversible
[4] = target: T2, 3-dehydroquinate synthase (Escherichia coli K-12); test: Rate constant against 3-dehydroquinate synthase

Compound | pKi [1] | k off [2] [s⁻¹] | inhibition [3] | k on [4] [M⁻¹ s⁻¹]
O=C(O)C1(O)CC(O)CC(CP(=O)(O)O)C1 (centres undefined) | 6.27 | 0.00054 | R | 1000
O=C(O)C1(O)CC(O)C(O)C(CP(=O)(O)O)C1 (centres undefined) | 8.27 | 0.00075 | R | 140000
O=C(O)C1(O)CCC(O)C(CP(=O)(O)O)C1 (centres undefined) | – | – | R | –
